Patent US20100028447A1, “Intranasal, Buccal, And Sublingual Administration Of Metanicotine Analogs” (TARGACEPT, INC., priority 2007, published 2010)
Several values for one entry are separate records, joined by “and”; a condition that tells them apart may be missing. Equal entries are not always repeated. Where two headings read alike, the source gives them in different places.

Test: Brain-to-plasma ratio of Compound C after oral gavage or intranasal administration (Example 5)
Format: in vivo, Sprague-Dawley rats
Settings: for concentration at 10 min / concentration at 30 min / concentration at 60 min / Kp at […] / Kp at 0.5 h / Kp at 1 h: Sprague-Dawley
Description: Three treatment groups of nine rats each were used (see Study Design, Table 9). […] The animals were housed up to three per cage and identified by cage labels. A single room was used for this study. […] Food was withheld from the animals for a minimum of 12 hours before the study and during the study, and was returned at 4 hours post-dose. Water was supplied ad libitum during the study.
All dosing solutions were prepared in isotonic PBS (phosphate buffered saline) buffer at pH 7.4. […] For intranasal dosing, the animals were anesthetized with CO2 prior to dosing, and the solution was administered in a 25 μL droplet from a pipette.
For each treatment group, brain and plasma samples were collected at 10, 30 and 60 minutes post-dose. Blood samples were placed in heparinized tubles and spun at 13,000 rpm for 5 minutes. The plasma was placed in polyethylene tubes and frozen (−60 to −80° C.). Brain samples were also placed in chilled tubes and frozen (−60 to −80° C.). Samples remained chilled during subsequent processing.
Brain samples were thawed and weighed. […] After homogenation, the volume of each sample was recorded and the samples were frozen at −80° C. until analysis.
Plastic tubes were used for all steps. Standards were prepared at concentrations of 1000, 500, 250, 100, 50, 10, 5, and 1 ng/mL by serial dilution. Quality control samples were also prepared at 500, 100, and 5 ng/mL. […] Brain standards and quality control samples were treated identically to the test compound samples.
(§1) Brain samples (200 μL) were loaded onto a 96 well plate and then transferred to 400 μL of acetonitrile containing internal standard (100 ng/mL Pindolol) in a Sirocco Protein Precipitation Plate (Waters Corporation). The resulting suspensions were mixed, then filtered into a clean 96-well collection plate using a vacuum and transferred (100 μL) to plastic HPLC vials for analysis.
as §1, with “(50” for “(200”, “150” for “400”

[1] = 1 mg/kg intranasal dose, 10 min
[2] = 1 mg/kg intranasal dose, 30 min
[3] = 1 mg/kg intranasal dose, 60 min
[4] = 5 mg/kg intranasal dose, 10 min
[5] = 5 mg/kg intranasal dose, 60 min

- Brain-to-Plasma Ratio [1]: 1.55 and 1.68
- Mean Ratio (brain-to-plasma) [1]: 1.97
- Brain-to-Plasma Ratio [2]: 1.69 and 2.36
- Mean Ratio (brain-to-plasma) [2]: 2.27
- Plasma Conc. [2]: 118 ng/mL and 86.8 ng/mL
- Brain-to-Plasma Ratio [3]: 1.86 and 2.57
- Mean Ratio (brain-to-plasma) [3]: 2.12
- Plasma Conc. [3]: 66 ng/mL and 37.8 ng/mL
- Brain-to-Plasma Ratio [4]: 0.99
- Plasma Conc. [4]: 1570 ng/mL and 1700 ng/mL
- Brain-to-Plasma Ratio (5 mg/kg intranasal dose, 30 min): 3.58 and 2.11
- Brain-to-Plasma Ratio [5]: 3.26 and 1.95
- Mean Ratio (brain-to-plasma) [5]: 2.41
- Plasma Conc. [5]: 175 ng/mL and 119 ng/mL
- Brain-to-Plasma Ratio (5 mg/kg oral dose, 30 min): 2.65 and 1.67
- Mean Ratio (brain-to-plasma) (5 mg/kg oral dose, 30 min): 2.21
- Brain-to-Plasma Ratio (5 mg/kg oral dose, 60 min): 3.95
- Mean Ratio (brain-to-plasma) (5 mg/kg oral dose, 60 min): 3.55
- 5 mg/kg IN/5 mg/kg PO, Brain (30 min): 1.0
- 5 mg/kg IN/5 mg/kg PO, Plasma (30 min): 0.7
- 5 mg/kg IN/5 mg/kg PO, Brain (60 min): 0.7
- 5 mg/kg IN/5 mg/kg PO, Plasma (60 min): 1.0
- concentration at 10 min (rat, brain homogenate, oral, 5 mg/kg, 5 mg/kg oral dose, 10 min, read-out: Brain Conc.): 45.4 ng/mL
- concentration at 30 min (rat, brain homogenate, oral, 5 mg/kg, 5 mg/kg oral dose, 30 min, read-out: Brain Conc.): 205 ng/mL
- concentration at 10 min (rat, brain homogenate, other: intranasal, 1 mg/kg, 1 mg/kg intranasal dose, 10 min, read-out: Brain Conc.): 47.6 ng/mL
- concentration at 30 min (rat, brain homogenate, other: intranasal, 1 mg/kg, 1 mg/kg intranasal dose, 30 min, read-out: Brain Conc.): 43.7 ng/mL
- concentration at 60 min (rat, brain homogenate, other: intranasal, 1 mg/kg, 1 mg/kg intranasal dose, 60 min, read-out: Brain Conc.): 17.7 ng/mL
- concentration at 10 min (rat, brain homogenate, other: intranasal, 5 mg/kg, 5 mg/kg intranasal dose, 10 min, read-out: Brain Conc.): 269 ng/mL
- Kp at […] (rat, brain, inhaled or intranasal, 1 mg/kg, 1 mg/kg intranasal dose, 10 min, read-out: Mean Ratio (brain-to-plasma)): 2
- Kp at 0.5 h (rat, brain, inhaled or intranasal, 1 mg/kg, 1 mg/kg intranasal dose, 30 min, read-out: Mean Ratio (brain-to-plasma)): 2.8
- Kp at 1 h (rat, brain, inhaled or intranasal, 1 mg/kg, 1 mg/kg intranasal dose, 60 min, read-out: Mean Ratio (brain-to-plasma)): 2.4
- Kp at […] (rat, brain, inhaled or intranasal, 5 mg/kg, 5 mg/kg intranasal dose, 10 min, read-out: Mean Ratio (brain-to-plasma)): 1.2
- Kp at 0.5 h (rat, brain, inhaled or intranasal, 5 mg/kg, 5 mg/kg intranasal dose, 30 min, read-out: Mean Ratio (brain-to-plasma)): 2.8
- Kp at 1 h (rat, brain, inhaled or intranasal, 5 mg/kg, 5 mg/kg intranasal dose, 60 min, read-out: Mean Ratio (brain-to-plasma)): 2.4
- concentration at 10 min (rat, brain, oral, 5 mg/kg, 5 mg/kg oral dose, 10 min, read-out: Brain Conc.): 227 ng/g
- concentration at 30 min (rat, brain, oral, 5 mg/kg, 5 mg/kg oral dose, 30 min, read-out: Brain Conc.): 1020 ng/g
- concentration at 10 min (rat, brain, other: intranasal, 1 mg/kg, 1 mg/kg intranasal dose, 10 min, read-out: Brain Conc.): 238 ng/g
- concentration at 30 min (rat, brain, other: intranasal, 1 mg/kg, 1 mg/kg intranasal dose, 30 min, read-out: Brain Conc.): 219 ng/g
- concentration at 60 min (rat, brain, other: intranasal, 1 mg/kg, 1 mg/kg intranasal dose, 60 min, read-out: Brain Conc.): 89 ng/g
- concentration at 10 min (rat, brain, other: intranasal, 1 mg/kg, intranasal 1 mg/kg, 10 minutes, read-out: Average brain levels): 136 ng/g
- concentration at 30 min (rat, brain, other: intranasal, 1 mg/kg, intranasal 1 mg/kg, 30 minutes, read-out: Average brain levels): 95 ng/g
- concentration at 60 min (rat, brain, other: intranasal, 1 mg/kg, intranasal 1 mg/kg, 60 minutes, read-out: Average brain levels): 50 ng/g
- concentration at 10 min (rat, brain, other: intranasal, 5 mg/kg, 5 mg/kg intranasal dose, 10 min, read-out: Brain Conc.): 1340 ng/g
- concentration at 10 min (rat, brain, other: intranasal, 5 mg/kg, intranasal 5 mg/kg, 10 minutes, read-out: Average brain levels): 1750 ng/g
- concentration at 30 min (rat, brain, other: intranasal, 5 mg/kg, intranasal 5 mg/kg, 30 minutes, read-out: Average brain levels): 1160 ng/g
- concentration at 60 min (rat, brain, other: intranasal, 5 mg/kg, intranasal 5 mg/kg, 60 minutes, read-out: Average brain levels): 382 ng/g
- concentration at 10 min (rat, brain, po, 5 mg/kg, oral gavage 5 mg/kg, 10 minutes, read-out: Average brain levels): 225 ng/g
- concentration at 30 min (rat, brain, po, 5 mg/kg, oral gavage 5 mg/kg, 30 minutes, read-out: Average brain levels): 1170 ng/g
- concentration at 60 min (rat, brain, po, 5 mg/kg, oral gavage 5 mg/kg, 60 minutes, read-out: Average brain levels): 571 ng/g
- Kp at […] (rat, brain/plasma, inhaled or intranasal, 1 mg/kg, 1 mg/kg intranasal dose, 10 min, read-out: Brain-to-Plasma Ratio): 2.7
- Kp at 0.5 h (rat, brain/plasma, inhaled or intranasal, 1 mg/kg, 1 mg/kg intranasal dose, 30 min, read-out: Brain-to-Plasma Ratio): 2.78
- Kp at 1 h (rat, brain/plasma, inhaled or intranasal, 1 mg/kg, 1 mg/kg intranasal dose, 60 min, read-out: Brain-to-Plasma Ratio): 1.92
- Kp at […] (rat, brain/plasma, inhaled or intranasal, 5 mg/kg, 5 mg/kg intranasal dose, 10 min, read-out: Brain-to-Plasma Ratio): 1.42
- Kp at 0.5 h (rat, brain/plasma, inhaled or intranasal, 5 mg/kg, 5 mg/kg intranasal dose, 30 min, read-out: Brain-to-Plasma Ratio): 2.63
- Kp at 1 h (rat, brain/plasma, inhaled or intranasal, 5 mg/kg, 5 mg/kg intranasal dose, 60 min, read-out: Brain-to-Plasma Ratio): 2.03
- Kp at […] (rat, brain/plasma, po, 5 mg/kg, 5 mg/kg oral dose, 10 min, read-out: Mean Ratio (brain-to-plasma)): 0.8
- Kp at 0.5 h (rat, brain/plasma, po, 5 mg/kg, 5 mg/kg oral dose, 30 min, read-out: Brain-to-Plasma Ratio): 2.31
- Kp at 0.5 h (rat, brain/plasma, po, 5 mg/kg, 5 mg/kg oral dose, 30 min, read-out: Mean Ratio (brain-to-plasma)): 2.2
- Kp at 1 h (rat, brain/plasma, po, 5 mg/kg, 5 mg/kg oral dose, 60 min, read-out: Brain-to-Plasma Ratio): 3.89
- Kp at 1 h (rat, brain/plasma, po, 5 mg/kg, 5 mg/kg oral dose, 60 min, read-out: Mean Ratio (brain-to-plasma)): 3.5
- Kp at […] (rat, brain/plasma, po, 5 mg/kg, 10 min, read-out: 5 mg/kg IN/5 mg/kg PO, Ratio (brain to plasma)): 1.5
- Kp at 0.5 h (rat, brain/plasma, po, 5 mg/kg, 30 min, read-out: 5 mg/kg IN/5 mg/kg PO, Ratio (brain to plasma)): 1.3
- Kp at 1 h (rat, brain/plasma, po, 5 mg/kg, 60 min, read-out: 5 mg/kg IN/5 mg/kg PO, Ratio (brain to plasma)): 0.7
- concentration at 30 min (rat, plasma, other: intranasal, 1 mg/kg, 1 mg/kg intranasal dose, 30 min, read-out: Plasma Conc.): 78.7 ng/mL
- concentration at 60 min (rat, plasma, other: intranasal, 1 mg/kg, 1 mg/kg intranasal dose, 60 min, read-out: Plasma Conc.): 46 ng/mL
- concentration at 10 min (rat, plasma, other: intranasal, 1 mg/kg, intranasal 1 mg/kg, 10 minutes, read-out: Average plasma levels): 250 ng/mL
- concentration at 30 min (rat, plasma, other: intranasal, 1 mg/kg, intranasal 1 mg/kg, 30 minutes, read-out: Average plasma levels): 208 ng/mL
- concentration at 60 min (rat, plasma, other: intranasal, 1 mg/kg, intranasal 1 mg/kg, 60 minutes, read-out: Average plasma levels): 103 ng/mL
- concentration at 10 min (rat, plasma, other: intranasal, 5 mg/kg, 5 mg/kg intranasal dose, 10 min, read-out: Plasma Conc.): 1120 ng/mL
- concentration at 60 min (rat, plasma, other: intranasal, 5 mg/kg, 5 mg/kg intranasal dose, 60 min, read-out: Plasma Conc.): 170 ng/mL
- concentration at 10 min (rat, plasma, other: intranasal, 5 mg/kg, intranasal 5 mg/kg, 10 minutes, read-out: Average plasma levels): 1460 ng/mL
- concentration at 30 min (rat, plasma, other: intranasal, 5 mg/kg, intranasal 5 mg/kg, 30 minutes, read-out: Average plasma levels): 421 ng/mL
- concentration at 60 min (rat, plasma, other: intranasal, 5 mg/kg, intranasal 5 mg/kg, 60 minutes, read-out: Average plasma levels): 155 ng/mL
- concentration at 10 min (rat, plasma, po, 5 mg/kg, oral gavage 5 mg/kg, 10 minutes, read-out: Average plasma levels): 312 ng/mL
- concentration at 30 min (rat, plasma, po, 5 mg/kg, oral gavage 5 mg/kg, 30 minutes, read-out: Average plasma levels): 578 ng/mL
- concentration at 60 min (rat, plasma, po, 5 mg/kg, oral gavage 5 mg/kg, 60 minutes, read-out: Average plasma levels): 155 ng/mL
- Intranasal absorption into the brain and bloodstream compared with oral administration (rat, in vivo, po): much faster
SMILES: CN[C@@H](C)C/C=C/c1cncc(OC(C)C)c1 [Compound C, (2S)-(4E)-N-methyl-5-(3-(5-isopropoxypyridin)yl)-4-penten-2-amine]
